In US9624215B2, “Amine derivative or salt thereof” (TOYAMA CHEMICAL CO., LTD., priority 2012, dated 2017) one finds IC50 and inhibition data, which are given here for 32 compounds.

Some results are limits rather than exact numbers.

The subject of assay [1] is normal human neonatal foreskin epidermal keratinocytes (NHEK-F). As to the kind of experiment: Cell proliferation inhibition test. The class given is cell-based. The following applies: Keratinocyte, 72 h, NHEK-F cells, three days incubation, ATPlite or CellTiterGlo, read-out: IC50 (concentration of the compound at which the cell count is reduced by 50%). An outline of the steps:
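NHEK-F keratinocytes, 2×10^3 per well in Humedia-EG2, plated overnight, then exposed to compound for three days. Cell count by ATPlite or CellTiterGlo luminescence; inhibition = 100 − (treated/untreated count)×100, IC50 as 50% reduction concentration.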
Background: ATP-based viability assays read luminescence as a measure of living cells.

Assay [2] relates to TNFα production in LPS-stimulated Raw264.7 cells. The assay is described as follows: TNFα production inhibition test. In kind it is cell-based. The following applies: Mus musculus, test compound 1 μmol/L, LPS 1 μg/mL, 16 hours, ELISA, read-out: Inhibition rate of TNFα production. As to the method: 7×10^4 mouse macrophage-derived cell line Raw264.7 cells were suspended in 100 μL of RPMI1640 medium containing 10% fetal bovine serum, plated in a 96-well plate and incubated overnight. The culture supernatant was removed and the test compound diluted in RPMI1640 medium containing 1% fetal bovine serum (final concentration: 1 μmol/L) was added. One hour after the addition, LPS (B4:0111) (Sigma-Aldrich, L2630) was added to a final concentration of 1 μg/mL. 16 hours after the stimulation, the culture supernatant was collected and the amount of TNFα produced in the culture supernatant was determined using ELISA kit (R&D Systems, MTA00B).
The inhibition rate was calculated from the following formula. Inhibition rate (%)=100−(amount of TNFα produced in the presence of test compound/amount of TNFα produced in the absence of test compound)×100
Background: An ELISA detects its analyte on a solid surface through an enzyme-linked reagent.

Regarding `O=C(O)c1cc(Cl)ccc1Nc1ccc2c(c1)sc(=O)n2Cc1ccccc1` [Example 67, 2-((3-benzyl-2-oxo-2,3-dihydrobenzo[d]thiazol-6-yl)amino)-5-chlorobenzoic acid], the IC50 in assay [1] lay in the range of 10 to 100 nM. In addition, the inhibition at 1 µM in assay [2] was at least 50%.
The corresponding values for `O=C(O)c1cc(Cl)ccc1Nc1ccc2c(c1)ncc(=O)n2Cc1ccccc1` [Example 69, 2-((1-benzyl-2-oxo-1,2-dihydroquinoxalin-6-yl)amino)-5-chlorobenzoic acid] are 100 to 1000 nM and at least 50%.
With `O=C(O)c1cc(C2CC2)ccc1Nc1ccc2c(c1)sc(=O)n2Cc1ccccc1` [Example 73, 2-((3-benzyl-2-oxo-2,3-dihydrobenzo[d]thiazol-6-yl)amino)-5-cyclopropylbenzoic acid], the IC50 in assay [1] is at most 10 nM. In assay [2], the inhibition at 1 µM is at least 50%.
The corresponding values for `Cn1c(=O)n(-c2ccccc2)c2ccc(Nc3ccc(C4CC4)cc3C(=O)O)cc21` [Example 78, 5-cyclopropyl-2-((3-methyl-2-oxo-1-phenyl-2,3-dihydro-1H-benzo[d]imidazol-5-yl)amino)benzoic acid] are 10 to 100 nM and at least 50%.
For `O=C(O)c1cc(C2CC2)ccc1Nc1ccc2c(c1)n(CC(F)(F)F)c(=O)n2-c1ccccc1` [Example 80, 5-cyclopropyl-2-((2-oxo-1-phenyl-3-(2,2,2-trifluoroethyl)-2,3-dihydro-1H-benzo[d]imidazol-5-yl)amino)benzoic acid], in that order: 10 to 100 nM and at least 50%.
Regarding `O=C(O)c1cc(C2CC2)ccc1Nc1ccc2c(c1)n(CC1CC1)c(=O)n2-c1ccccc1` [Example 82, 5-cyclopropyl-2-((3-(cyclopropylmethyl)-2-oxo-1-phenyl-2,3-dihydro-1H-benzo[d]imidazol-5-yl)amino)benzoic acid], the IC50 in assay [1] fell in the range of 10 to 100 nM. Further, the inhibition at 1 µM in assay [2] is at least 50%.
For `O=C(O)c1cc(Cl)ccc1Nc1ccc2c(ccn2Cc2cccc(OCC(F)(F)F)c2)c1` [Example 84, 5-chloro-2-((1-(3-(2,2,2-trifluoroethoxyl)benzyl)-1H-indol-5-yl)amino)benzoic acid], in that order: at most 10 nM and at least 50%.
For `O=C(O)c1cc(Cl)ccc1Nc1ccc2c(ccn2CC2CC2)c1` [Example 96, 5-chloro-2-((1-(cyclopropylmethyl)-1H-indol-5-yl)amino)benzoic acid], in that order: 10 to 100 nM and at least 50%.
For `O=C(O)c1cc(Cl)ccc1Nc1ccc2c(ccn2C2CC2)c1` [Example 98, 5-chloro-2-((1-(cyclopropyl)-1H-indol-5-yl)amino)benzoic acid], in that order: 10 to 100 nM and at least 50%.
Consider `Cc1ccc(-n2ccc3cc(Nc4ccc(C5CC5)cc4C(=O)O)ccc32)nn1` [Example 102, 5-cyclopropyl-2-((1-(6-methylpyridazin-3-yl)-1H-indol-5-yl)amino)benzoic acid], for which the IC50 in assay [1] was 10 to 100 nM. In assay [2], the inhibition at 1 µM is at least 50%.
As to `O=C(O)c1cc(C2CC2)ccc1Nc1ccc2c(ccn2CC2CC2)c1` [Example 104, 5-cyclopropyl-2-((1-(cyclopropylmethyl)-1H-indol-5-yl)amino)benzoic acid], in assay [1], the IC50 is at most 10 nM. Besides, the inhibition at 1 µM in assay [2] was at least 50%.
The corresponding values for `O=C(O)c1cc(C2CC2)ccc1Nc1ccc2c(c1)CC(=O)N2Cc1ccccc1` [Example 107, 2-((1-benzyl-2-oxoindolin-5-yl)amino)-5-cyclopropylbenzoic acid] are 10 to 100 nM and at least 50%.
The corresponding values for `O=C(O)c1cc(C2CC2)ccc1Nc1ccc2c(c1)CC(=O)N2CC1CC1` [Example 108, 5-cyclopropyl-2-((1-(cyclopropylmethyl)-2-oxoindolin-5-yl)amino)benzoic acid] are 10 to 100 nM and at least 50%.
For `CC(C)(C)c1cc2cc(Nc3ccc(C4CC4)cc3C(=O)O)ccc2[nH]1` [Example 110, 2-((2-(tert-butyl)-1H-indol-5-yl)amino)-5-cyclopropylbenzoic acid], in that order: 10 to 100 nM and at least 50%.
Turning to `CC(C)n1ccc2cc(Nc3ccc(C4CC4)cc3C(=O)O)ccc21` [Example 112, 5-cyclopropyl-2-((1-isopropyl-1H-indol-5-yl)amino)benzoic acid], the IC50 in assay [1] was at most 10 nM. Besides, in assay [2], the inhibition at 1 µM is at least 50%.
For `O=C(O)c1cc(C2CC2)ccc1Nc1ccc2c(ccn2Cc2ccc(N3CCCCC3)cc2)c1` [Example 194, 5-cyclopropyl-2-((1-(4-(piperidin-1-yl)benzyl)-1H-indol-5-yl)amino)benzoic acid], in that order: at most 10 nM and at least 50%.
For the compound `O=C(O)c1cc(C2CC2)ccc1Nc1ccc2c(ccn2Cc2ccc(N3CCOCC3)cc2)c1` [Example 196, 5-cyclopropyl-2-((1-(4-morpholinobenzyl)-1H-indol-5-yl)amino)benzoic acid], the IC50 in assay [1] is 10 to 100 nM. In assay [2], the inhibition at 1 µM was at least 50%.
For `CN(C)c1ccc(Cn2ccc3cc(Nc4ccc(C5CC5)cc4C(=O)O)ccc32)cc1` [Example 198, 5-cyclopropyl-2-((1-(4-(dimethylamino)benzyl)-1H-indol-5-yl)amino)benzoic acid], in that order: at most 10 nM and at least 50%.
The corresponding values for `O=C(O)c1cc(C2CC2)ccc1Nc1ccc2c(ccn2C(=O)c2ccccc2)c1` [Example 202, 2-((1-benzoyl-1H-indol-5-yl)amino)-5-cyclopropylbenzoic acid] are at most 10 nM and at least 50%.
In the case of `CCCCn1ccc2cc(Nc3ccc(Cl)cc3C(=O)O)ccc21` [Example 255, 2-((1-butyl-1H-indol-5-yl)amino)-5-chlorobenzoic acid], the IC50 in assay [1] was 10 to 100 nM. In addition, the inhibition at 1 µM in assay [2] was at least 50%.
Take `O=C(O)c1cc(Cl)ccc1Nc1ccc2c(ccn2-c2ccccc2)c1` [Example 269, 5-chloro-2-((1-phenyl-1H-indol-5-yl)amino)benzoic acid]: the IC50 in assay [1] is at most 10 nM. Moreover, the inhibition at 1 µM in assay [2] is at least 50%.
For `O=C(O)c1cc(Cl)ccc1Nc1ccc2c(ccn2Cc2cccc(OC(F)F)c2)c1` [Example 277, 5-chloro-2-((1-(3-(difluoromethoxy)benzyl)-1H-indol-5-yl)amino)benzoic acid], in that order: at most 10 nM and at least 50%.
Consider `O=C(O)c1cc(Cl)ccc1Nc1ccc2c(c1)CN(c1ccccc1)C2=O` [Example 281, 5-chloro-2-((1-oxo-2-phenylisoindolin-5-yl)amino)benzoic acid], for which, in assay [1], the IC50 lay within 100 to 1000 nM. Besides, the inhibition at 1 µM in assay [2] was at least 50%.
The corresponding values for `O=C(O)c1cc(Cl)ccc1Nc1ccc2c(c1)CCN2c1ccccc1` [Example 283, 5-chloro-2-((1-phenylindolin-5-yl)amino)benzoic acid] are at most 10 nM and at least 50%.
The corresponding values for `COCCOc1cccc(Cn2ccc3cc(Nc4ccc(Cl)cc4C(=O)O)ccc32)c1` [Example 298, 5-chloro-2-((1-(3-(2-methoxyethoxyl)benzyl)-1H-indol-5-yl)amino)benzoic acid] are at most 10 nM and at least 50%.
For `O=C(O)c1cc(Cl)ccc1Nc1ccc2c(ccn2Cc2cccc(OCCO)c2)c1` [Example 300, 5-chloro-2-((1-(3-(2-hydroxyethoxy)benzyl)-1H-indol-5-yl)amino)benzoic acid], in that order: 10 to 100 nM and at least 50%.
As for `O=C(O)c1cc(Cl)ccc1Nc1ccc2c(ccn2-c2ccc(F)cc2)c1` [Example 331, 5-chloro-2-((1-(4-fluorophenyl)-1H-indol-5-yl)amino)benzoic acid], in assay [1], the IC50 was at most 10 nM. The inhibition at 1 µM in assay [2] was at least 50%.
For the compound `O=C(O)c1cc(Cl)ccc1Nc1ccc2c(ccn2-c2cccc(C(F)(F)F)c2)c1` [Example 333, 5-chloro-2-((1-(3-(trifluoromethyl)phenyl)-1H-indol-5-yl)amino)benzoic acid], in assay [1], the IC50 is at most 10 nM. Moreover, in assay [2], the inhibition at 1 µM was at least 50%.
The corresponding values for `O=C(O)c1cc(Cl)ccc1Nc1ccc2c(ccn2-c2ccccc2F)c1` [Example 335, 5-chloro-2-((1-(2-fluorophenyl)-1H-indol-5-yl)amino)benzoic acid] are at most 10 nM and at least 50%.
The corresponding values for `O=C(O)c1cc(Cl)ccc1Nc1ccc2c(ccn2-c2ccccc2C(F)(F)F)c1` [Example 337, 5-chloro-2-((1-(2-(trifluoromethyl)phenyl)-1H-indol-5-yl)amino)benzoic acid] are at most 10 nM and at least 50%.
The corresponding values for `O=C(O)c1cc(C2CC2)ccc1Nc1ccc2c(ccn2-c2cccnc2)c1` [Example 339, 5-cyclopropyl-2-((1-(pyridin-3-yl)-1H-indol-5-yl)amino)benzoic acid] are at most 10 nM and at least 50%.
Take `O=C(O)c1cc(Cl)cnc1Nc1ccc2c(cnn2Cc2ccccc2)c1` [Example 354, 2-((1-benzyl-1H-indazol-5-yl)amino)-5-chloronicotinic acid]: the IC50 in assay [1] fell in the range of 10 to 100 nM. The inhibition at 1 µM in assay [2] is at least 50%.

A word on the inhibition: it is the percentage by which the read-out fell short of the control.
